From patent publication EP0776896A1, “Heterocyclic compounds and their use” (priority 1995, dated 1997) come the findings set out here.

Like-named read-outs stand apart in the source and are kept apart here.

In test [1] the target is muscarinic acetylcholine receptors. The experiment in a line: Inhibition of specific binding of ^3H-Oxotremorine-M to rat cortex homogenate. Also noted: species or system male Wistar rats. To be noted: 1.0 nM ^3H-Oxotremorine, 30 min at 25°C, read-out: ^3H-Oxo-M IC50. The text has this:
The pharmacological properties of the compounds of the invention can be illustrated by determining their capability to inhibit the specific binding of ^3H-Oxotremorine-M (^3H-Oxo). Birdsdall N.J.M., Hulme E.C., and Burgen A.S.V. (1980). "The Character of Muscarinic Receptors in Different Regions of the Rat Brain". Proc. Roy. Soc. London (Series B) 207,1.
^3H-Oxo labels muscarinic receptor in the CNS (with a preference for agonist domains of the receptors). Three different sites are labeled by ^3H-Oxo. […] Using the present experimental conditions only the high and medium affinity sites are determined.
The inhibitory effects of compounds on ^3H-oxo binding reflects the affinity for muscarinic acetylcholine receptors.
All preparations are performed at 0-4°C unless otherwise indicated. Fresh cortex (0.1-1 g) from male Wistar rats (150-250 g) is homogenized for 5-10 s in 10 mL […] Hepes pH: 7.4, with an Ultra-Turrax homogenizer. The homogenizer is rinsed with 10 mL of buffer and the combined suspension centrifuged for 15 min. at 40,000 x g. The pellet is washed three times with buffer. In each step the pellet is homogenized as before in 2 x 10 mL of buffer and centrifuged for 10 min. at 40,000 x g.
The final pellet is homogenized in 20 mM Hepes pH: 7.4 (100 mL per g of original tissue) and used for binding assay. Aliquots of 0.5 mL is added 25 µL of test solution and 25 µL of ^3H-Oxotremorine (1.0 nM, final concentration) mixed and incubated for 30 min. at 25°C. Non-specific binding is determined in triplicate using arecoline (1 µg/mL, final concentration) as the test substance. After incubation samples are added 5 mL of ice-cold buffer and poured directly onto Whatman GF/C glass fiber filters under suction and immediately washed 2 times with 5 mL of ice-cold buffer. The amount of radioactivity on the filters are determined by conventional liquid scintillation counting. Specific binding is total binding minus non specific binding.
Test substances are dissolved in 10 mL water (if necessary heated on a steam-bath for less than 5 min.) at a concentration of 2.2 mg/mL. 25-75% inhibition of specific binding must be obtained before calculation of IC50. The test value will be given as IC50 (the concentration (nM) of the test substance which inhibits the specific binding of ^3H-oxo by 50%). IC50 = (applied test substance concentration) x(Cx/Co-Cx)nM where Co is specific binding in control assays and Cx is the specific binding in the test assay. (The calculations assume normal mass-action kinetics).

Test [2] concerns the target T1, muscarinic receptors (M1-site, pirenzepine sensitive site) (Rattus norvegicus, UniProt P08482).
T1 construct: Fresh cortex (0.1-1 9) from male Wistar rats (150-200 g) is homogenized; from tissue; host or cells: rat cerebral cortex membranes
T1 sequence (P08482 1-460): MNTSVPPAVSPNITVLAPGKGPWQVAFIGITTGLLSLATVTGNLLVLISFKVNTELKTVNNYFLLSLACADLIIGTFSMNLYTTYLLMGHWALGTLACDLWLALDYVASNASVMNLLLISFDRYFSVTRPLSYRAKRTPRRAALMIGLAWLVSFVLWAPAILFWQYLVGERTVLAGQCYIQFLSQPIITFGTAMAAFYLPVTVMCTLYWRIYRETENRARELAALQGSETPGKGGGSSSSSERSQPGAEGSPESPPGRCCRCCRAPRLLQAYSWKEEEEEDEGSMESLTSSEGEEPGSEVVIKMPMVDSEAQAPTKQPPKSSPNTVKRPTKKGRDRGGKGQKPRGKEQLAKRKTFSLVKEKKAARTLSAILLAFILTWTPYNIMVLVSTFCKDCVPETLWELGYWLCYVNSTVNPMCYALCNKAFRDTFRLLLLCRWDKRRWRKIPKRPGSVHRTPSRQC
The experiment in a line: Inhibition of ^3HPRZ (pirenzepine) binding to rat cerebral cortex membranes. To be noted: 1.0 nM ^3HPRZ, 60 min at 20°C. Also noted: species or system male Wistar rats. Here is the method:
Furthermore the pharmacological properties of the compounds of the invention can also be illustrated by determining their capability to inhibit ^3HPRZ (pirenzepine, [N-methyl^-3H]) binding to rat cerebral cortex membranes.
Pirenzepine binds selectively to subtype of muscarinic receptors. Historically the type is named the M1-site, whereas pirenzepine sensitive site would be more appropriate. Although selective for M1-sites pirenzepine also interact with M2-sites.
All preparations are performed at 0-4°C unless otherwise indicated. Fresh cortex (0.1-1 9) from male Wistar rats (150-200 g) is homogenized for 5-10 s in 10 mL 20 mM Hepes pH: 7.4, with an Ultra-Turrax homogenizer. The homogenizer is rinsed with 2 x 10 mL of buffer and the combined suspension centrifuged for 15 min. at 40,000 x g. The pellet is washed three times with buffer. In each step the pellet is homogenized as before in 3 x 10 mL of buffer and centrifuged for 10 min. at 40,000 x g.
The final pellet is homogenized in 20 mM Hepes pH: 7.4 (100 mL per g of original tissue) and used for binding assay. Aliquots of 0.5 mL is added 20 µL of test solution and 25 µL of ^3HPRZ (1.0 nM, final conc.), mixed and incubated for 60 min. at 20°C. Non-specific binding is determined in triplicate using atropine (1.0 µg/mL, final conc.) as the test substance. After incubation samples are added 5 mL of ice-cold buffer and poured directly onto Whatman GF/C glass fiber filters under suction and immediately washed 2 times with 5 mL of ice-cold buffer. The amount of radioactivity on the filters are determined by conventional liquid scintillation counting. Specific binding is total binding minus non-specific binding.
Test substances are dissolved in 10 mL water, at a concentration of 0.22 mg/mL. 25-75% inhibition of specific binding must be obtained before calculation of IC50.
The test value will be given as IC50 (the concentration (nM) of the test substance which inhibits the specific binding of ^3HPRZ by 50%). IC50 = (applied test substance concentration) x(Cx/Co-Cx)nM where Co is specific binding in control assays and Cx is the specific binding in the test assay. (The calculations assume normal mass-action kinetics).

Usually IC50 stands for the midpoint of a concentration-inhibition curve. Regarding `CCCCOc1nsnc1C1CC2CCC1NC2` (single isomer, unassigned) [Compound 4, ENDO 2-aza-6-(4-butyloxy-1,2,5-thiadiaz-3-yl)-bicyclo[2.2.2]octane], the half-inhibitory concentration (IC50) is 4.2 nM in test [1] and 17 nM in test [2] (read-out: ^3HPRZ IC50).

On to `CCCCOc1nsnc1C1CC2CCC1NC2` (single isomer, unassigned) [Compound 5, EXO 2-aza-6-(4-butyloxy-1,2,5-thiadiaz-3-yl)bicyclo[2.2.2]octane], for which the IC50 in test [1] was 143 nM; in test [2] (read-out: ^3HPRZ IC50), 139 nM.

Consider `CCCCCCOc1nsnc1C1CC2CCC1N(C)C2` (single isomer, unassigned) [Compound 7, ENDO 2-Aza-6-(4-hexyloxy-1,2,5-thiadiaz-3-yl)-2-methylbicyclo[2.2.2]octane], for which, in test [2] (read-out: ^3HPRZ IC50), the IC50 was 21 nM.

In the case of `CCCCCCOc1nsnc1C1CC2CCC1N(C)C2` (single isomer, unassigned) [Compound 8, EXO 2-Aza-6-(4-hexyloxy-1,2,5-thiadiaz-3-yl)-2-methylbicyclo[2.2.2]octane], the IC50 in test [2] (read-out: ^3HPRZ IC50) came out at 58 nM.

As for `CCCCSc1nsnc1C1CC2CCC1NC2` (stereo not drawn) [Compound 9, ENDO 2-aza-6-(4-butylthio-1,2,5-thiadiaz-3-yl)bicyclo[2.2.2]octane], the half-maximal inhibitory concentration (IC50) amounted to 2 nM in test [1] and 2.7 nM in test [2] (read-out: ^3HPRZ IC50).

`CCCSc1nsnc1C1CC2CCC1NC2` (stereo not drawn) [Compound 11, ENDO 2-Aza-6-(4-propylthio-1,2,5-thiadiaz-3-yl)bicyclo[2.2.2]octane]: the IC50 was 4.1 nM in test [1] and 13 nM in test [2] (read-out: ^3HPRZ IC50).

For `CCCOc1nsnc1C1CC2CCC1NC2` (stereo not drawn) [Compound 13, EXO 2-Aza-6-(4-propoxy-1,2,5-thiadiaz-3-yl)bicyclo[2.2.2]octane], the IC50 was found to be 263 nM in test [1] and 172 nM in test [2] (read-out: ^3HPRZ IC50).

Consider `CSc1nsnc1C1CC2CCC1NC2` (stereo not drawn) [Compound 14, EXO 2-Aza-6-(4-methylthio-1,2,5-thiadiaz-3-yl)bicyclo[2.2.2]octane], for which the IC50 in test [1] stood at 685 nM; in test [2] (read-out: ^3HPRZ IC50) it was 365 nM.

With `CCCCCSc1nsnc1C1CC2CCC1NC2` (stereo not drawn) [Compound 15, ENDO 2-aza-6-(4-thiopentyl-1,2,5-thiadiaz-3-yl)bicyclo[2.2.2]octane], the IC50 is 3.4 nM in test [1] and 5 nM in test [2] (^3HPRZ IC50,nM).

Consider `CCCCCSc1nsnc1C1CC2CCC1NC2` (stereo not drawn) [Compound 16, EXO 2-aza-6-(4-pentylthio-1,2,5-thiadiaz-3-yl)-bicyclo[2.2.2]octane], for which the IC50 in test [1] was 83 nM; in test [2] (^3HPRZ IC50,nM), 45 nM.

Regarding `CC(C)CCCSc1nsnc1C1CC2CCC1NC2` (stereo not drawn) [Compound 17], in test [2] (read-out: ^3HPRZ IC50), the 50% inhibitory concentration (IC50) was found to be 170 nM.

With `CC(C)CCCSc1nsnc1C1CC2CCC1NC2` (stereo not drawn) [Compound 18, ENDO 2-Aza-6-(4-((4-methylpentyl)thio)-1,2,5-thiadiaz-3-yl)bicyclo[2.2.2]octane], in test [2] (read-out: ^3HPRZ IC50), the IC50 is 13 nM.

`CSc1nsnc1C1CC2CCC1NC2` (stereo not drawn) [Compound 19]: the concentration for half-maximal inhibition (IC50) in test [1] was found to be 18 nM; in test [2] (read-out: ^3HPRZ IC50), 128 nM.

On to `FC(F)(F)CCCSc1nsnc1C1CC2CCC1NC2` (stereo not drawn) [Compound 20, ENDO 2-Aza-6-(4-((4,4,4-trifluorobutyl)thio)-1,2,5-thiadiaz-3-yl)-bicyclo[2.2.2]octane], for which the IC50 in test [2] (read-out: ^3HPRZ IC50) came out at 5.5 nM.

With `FC(F)(F)c1ccc(CSc2nsnc2C2CC3CCC2NC3)cc1` (stereo not drawn) [Compound 22, EXO 2-Aza-6-(4-(((4-trifluoromethyl)phenyl)methylthio)-1,2,5-thiadiaz-3-yl)-bicyclo[2.2.2]octane], the IC50 in test [2] (read-out: ^3HPRZ IC50) stood at 444 nM.

As for `N#Cc1ccc(CSc2nsnc2C2CC3CCC2NC3)cc1` (stereo not drawn) [Compound 23, ENDO 2-Aza-6-(4-((4-cyanophenyl)methylthio)-1,2,5-thiadiaz-3-yl)-bicyclo[2.2.2]octane], the IC50 was determined as 26 nM in test [1] and 36 nM in test [2] (^3HPRZ IC50,nM).

With `N#Cc1ccc(CSc2nsnc2C2CC3CCC2NC3)cc1` (stereo not drawn) [Compound 24, EXO 2-Aza-6-(4-((4-cyanophenyl)methylthio)-1,2,5-thiadiaz-3-yl)-bicyclo[2.2.2]octane], the values for the IC50 in test [1] and in test [2] (^3HPRZ IC50,nM) were 60 nM and 91 nM, respectively.

For the compound `N#Cc1ccc(CSc2nsnc2C2CC3CCC2NC3)s1` (stereo not drawn) [Compound 25, ENDO 2-Aza-6-(4-((5-cyanothien-2-yl)methylthio)-1,2,5-thiadiaz-3-yl)-bicyclo[2.2.2]octane], in test [2] (read-out: ^3HPRZ IC50), the 50% inhibitory concentration (IC50) was 6.2 nM.

With `N#Cc1ccc(CSc2nsnc2C2CC3CCC2NC3)s1` (stereo not drawn) [Compound 26, EXO 2-Aza-6-(4-((5-cyanothien-2-yl)methylthio)-1,2,5-thiadiaz-3-yl)-bicyclo[2.2.2]octane], in test [2] (read-out: ^3HPRZ IC50), the IC50 is 20 nM.

`CCCCCCSc1nsnc1C1CC2CCC1NC2` (stereo not drawn) [Compound 27, EXO 2-Aza-6-(4-hexylthio-1,2,5-thiadiaz-3-yl)bicyclo[2.2.2]octane]: in test [2] (read-out: ^3HPRZ IC50), the IC50 was found to be 2.3 nM.

`CCCCCCSc1nsnc1C1CC2CCC1NC2` (stereo not drawn) [Compound 28, EXO 2-Aza-6-(4-hexylthio-1,2,5-thiadiaz-3-yl)bicyclo[2.2.2]octane]: the IC50 in test [2] (read-out: ^3HPRZ IC50) worked out at 62 nM.

As to `CCCCCOc1nsnc1C1CC2CCC1NC2` (stereo not drawn) [Compound 30, ENDO 2-aza-6-(4-pentoxy-1,2,5-thiadiaz-3-yl)-bicyclo[2.2.2]octane], the IC50 in test [2] (read-out: ^3HPRZ IC50) came out at 15 nM.

On to `CCCCCOc1nsnc1C1CC2CCC1NC2` (stereo not drawn) [Compound 31, EXO 2-aza-6-(4-pentoxy-1,2,5-thiadiaz-3-yl)bicyclo[2.2.2]octane], for which, in test [2] (read-out: ^3HPRZ IC50), the IC50 was 80 nM.

In the case of `FC(F)(F)c1ccc(COc2nsnc2C2CC3CCC2NC3)cc1` (stereo not drawn) [Compound 32, EXO 2-Aza-6-(4-((4-trifluoromethylphenyl)methoxy)-1,2,5-thiadiaz-3-yl)-bicyclo[2.2.2]octane], in test [2] (read-out: ^3HPRZ IC50), the IC50 came to 244 nM.

As to `FC(F)(F)c1ccc(COc2nsnc2C2CC3CCC2NC3)cc1` (stereo not drawn) [Compound 33, EXO 2-Aza-6-(4-((4-trifluoromethylphenyl)methoxy)-1,2,5-thiadiaz-3-yl)-bicyclo[2.2.2]octane], in test [2] (read-out: ^3HPRZ IC50), the IC50 is 273 nM.
